Measured values published in ChEMBL document CHEMBL4177730, “Rational modification of semaxanib and sunitinib for developing a tumor growth inhibitor targeting ATP binding site of tyrosine kinase” (2018).
The source made the active and inactive calls. The calls are words filed in the database; no cut-off is given here.

Columns and labels:
[1] = tested on: Malme-3M; test: Growth inhibition of human MALME-3M cells after 48 hrs by sulforhodamine B assay; type: functional
[2] = tested on: SK-MEL-2; test: Growth inhibition of human SK-MEL-2 cells after 48 hrs by sulforhodamine B assay; type: functional; conditions: SK-MEL-2, 48 h
[3] = tested on: SK-OV-3; test: Growth inhibition of human SKOV3 cells at 10 uM after 48 hrs by sulforhodamine B assay; type: functional, cell-based
[4] = tested on: SK-OV-3; test: Growth inhibition of human SKOV3 cells after 48 hrs by sulforhodamine B assay; type: functional; conditions: SK-OV-3, 48 h
[5] = tested on: HT-29; test: Growth inhibition of human HT-29 cells at 10 uM after 48 hrs by sulforhodamine B assay; type: functional, cell-based
[6] = tested on: MCF7; test: Growth inhibition of human MCF7 cells at 10 uM after 48 hrs by sulforhodamine B assay; type: functional, cell-based
[7] = tested on: ACHN; test: Growth inhibition of human ACHN cells after 48 hrs by sulforhodamine B assay; type: functional
[8] = tested on: OVCAR-5; test: Growth inhibition of human OVCAR5 cells at 10 uM after 48 hrs by sulforhodamine B assay; type: functional, cell-based
[9] = tested on: BT-549; test: Growth inhibition of human BT549 cells at 10 uM after 48 hrs by sulforhodamine B assay; type: functional, cell-based
[10] = tested on: OVCAR-3; test: Growth inhibition of human OVCAR3 cells at 10 uM after 48 hrs by sulforhodamine B assay; type: functional, cell-based
[11] = tested on: MOLT-4; test: Growth inhibition of human MOLT4 cells at 10 uM after 48 hrs by sulforhodamine B assay; type: functional, cell-based
[12] = tested on: SF-268; test: Growth inhibition of human SF268 cells after 48 hrs by sulforhodamine B assay; type: functional; conditions: SF-268, 48 h
[13] = tested on: SK-MEL-2; test: Growth inhibition of human SK-MEL-2 cells at 10 uM after 48 hrs by sulforhodamine B assay; type: functional, cell-based
[14] = tested on: SNB-19; test: Growth inhibition of human SNB19 cells after 48 hrs by sulforhodamine B assay; type: functional; conditions: SNB-19, 48 h
[15] = tested on: NCI-H522; test: Growth inhibition of human NCI-H522 cells after 48 hrs by sulforhodamine B assay; type: functional; conditions: NCI-H522, 48 h
[16] = tested on: BT-549; test: Growth inhibition of human BT549 cells after 48 hrs by sulforhodamine B assay; type: functional; conditions: BT-549, 48 h
[17] = tested on: IGROV-1; test: Growth inhibition of human IGROV1 cells at 10 uM after 48 hrs by sulforhodamine B assay; type: functional, cell-based
[18] = tested on: SW-620; test: Growth inhibition of human SW620 cells at 10 uM after 48 hrs by sulforhodamine B assay; type: functional, cell-based
[19] = tested on: SNB-75; test: Growth inhibition of human SNB75 cells at 10 uM after 48 hrs by sulforhodamine B assay; type: functional, cell-based
[20] = tested on: SN12C; test: Growth inhibition of human SN12C cells after 48 hrs by sulforhodamine B assay; type: functional
[21] = tested on: EKVX; test: Growth inhibition of human EKVX cells after 48 hrs by sulforhodamine B assay; type: functional
[22] = tested on: A549; test: Growth inhibition of human A549/ATCC cells at 10 uM after 48 hrs by sulforhodamine B assay; type: functional, cell-based
[23] = tested on: MCF7; test: Growth inhibition of human MCF7 cells after 48 hrs by sulforhodamine B assay; type: functional; conditions: MCF7, 48 h
[24] = tested on: HOP-92; test: Growth inhibition of human HOP92 cells after 48 hrs by sulforhodamine B assay; type: functional; conditions: HOP-92, 48 h
[25] = tested on: NCI-H226; test: Growth inhibition of human NCI-H226 cells at 10 uM after 48 hrs by sulforhodamine B assay; type: functional, cell-based
[26] = tested on: A498; test: Growth inhibition of human A498 cells after 48 hrs by sulforhodamine B assay; type: functional; conditions: A498, 48 h
[27] = tested on: T47D; test: Growth inhibition of human T47D cells at 10 uM after 48 hrs by sulforhodamine B assay; type: functional, cell-based
[28] = tested on: OVCAR-3; test: Growth inhibition of human OVCAR3 cells after 48 hrs by sulforhodamine B assay; type: functional; conditions: OVCAR-3, 48 h
[29] = tested on: MDA-MB-468; test: Growth inhibition of human MDA-MB-468 cells after 48 hrs by sulforhodamine B assay; type: functional; conditions: MDA-MB-468, 48 h
[30] = tested on: TK-10; test: Growth inhibition of human TK10 cells after 48 hrs by sulforhodamine B assay; type: functional; conditions: TK-10, 48 h
[31] = tested on: NCI-H460; test: Growth inhibition of human NCI-H460 cells at 10 uM after 48 hrs by sulforhodamine B assay; type: functional, cell-based
[32] = tested on: HCC 2998; test: Growth inhibition of human HCC2998 cells after 48 hrs by sulforhodamine B assay; type: functional; conditions: HCC 2998, 48 h
[33] = tested on: K562; test: Growth inhibition of human K562 cells after 48 hrs by sulforhodamine B assay; type: functional; conditions: K562, 48 h
[34] = tested on: HL-60(TB); test: Growth inhibition of human HL-60(TB) cells after 48 hrs by sulforhodamine B assay; type: functional; conditions: HL-60, 48 h
[35] = tested on: OVCAR-4; test: Growth inhibition of human OVCAR4 cells after 48 hrs by sulforhodamine B assay; type: functional; conditions: OVCAR-4, 48 h
[36] = tested on: SF-295; test: Growth inhibition of human SF295 cells at 10 uM after 48 hrs by sulforhodamine B assay; type: functional, cell-based
[37] = tested on: HL-60(TB); test: Growth inhibition of human HL-60(TB) cells at 10 uM after 48 hrs by sulforhodamine B assay; type: functional, cell-based
[38] = read-out: LC50 (the source's name)

Q: Which results are given for `O=C1/C(=C\c2cccn2Cc2ccccc2)c2ccccc2N1c1c(Cl)cccc1Cl`?
A: GI50 [1]: 3.16 µM; TGI [1]: > 100 µM; CC50 [1, 38]: > 100 µM; GI50 [2]: 2.23 µM; TGI [2]: > 100 µM; CC50 [2, 38]: > 100 µM; growth inhibition (GI) [3]: Active; GI50 [4]: > 100 µM; TGI [4]: > 100 µM; CC50 [4, 38]: > 100 µM; growth inhibition (GI) [5]: Active; growth inhibition (GI) [6]: Active; GI50 [7]: 8.31 µM; TGI [7]: > 100 µM; CC50 [7, 38]: > 100 µM; growth inhibition (GI) [8]: Active; growth inhibition (GI) [9]: Active; growth inhibition (GI) [10]: Active; growth inhibition (GI) [11]: Active; GI50 [12]: > 100 µM; TGI [12]: > 100 µM; CC50 [12, 38]: > 100 µM; growth inhibition (GI) [13]: Active; GI50 [14]: > 100 µM; TGI [14]: > 100 µM; CC50 [14, 38]: > 100 µM; GI50 [15]: > 100 µM; TGI [15]: > 100 µM; CC50 [15, 38]: > 100 µM; GI50 [16]: > 100 µM; TGI [16]: > 100 µM; CC50 [16, 38]: > 100 µM; growth inhibition (GI) [17]: Active; growth inhibition (GI) [18]: Active; growth inhibition (GI) [19]: Active; GI50 [20]: > 100 µM; TGI [20]: > 100 µM; CC50 [20, 38]: > 100 µM; GI50 [21]: 0.41 µM; TGI [21]: 7.94 µM; CC50 [21, 38]: > 100 µM; growth inhibition (GI) [22]: Active; GI50 [23]: 0.035 µM; TGI [23]: > 100 µM; CC50 [23, 38]: > 100 µM; GI50 [24]: 0.97 µM; TGI [24]: 17.8 µM; CC50 [24, 38]: > 100 µM; growth inhibition (GI) [25]: Active; GI50 [26]: > 100 µM; TGI [26]: > 100 µM; CC50 [26, 38]: > 100 µM; growth inhibition (GI) [27]: Active; GI50 [28]: 0.74 µM; TGI [28]: > 100 µM; CC50 [28, 38]: > 100 µM; GI50 [29]: 0.063 µM; TGI [29]: 0.28 µM; CC50 [29, 38]: 1.38 µM; GI50 [30]: 0.64 µM; TGI [30]: > 100 µM; CC50 [30, 38]: > 100 µM; growth inhibition (GI) [31]: Active; GI50 [32]: 0.87 µM; TGI [32]: > 100 µM; CC50 [32, 38]: > 100 µM; GI50 [33]: > 100 µM; TGI [33]: > 100 µM; CC50 [33, 38]: > 100 µM; GI50 [34]: > 100 µM; TGI [34]: > 100 µM; CC50 [34, 38]: > 100 µM; GI50 [35]: 0.12 µM; TGI [35]: > 100 µM; CC50 [35, 38]: > 100 µM; growth inhibition (GI) [36]: Active; growth inhibition (GI) [37]: Active
